Test results from patent US20140186376A1, “Compositions and Methods for Inhibiting CCL3” (University of Rochester, priority 2012, published 2014).

System: osteoclasts
Assay: Zoledronic acid treatment of normal mice: serum bone markers (ELISA) and micro-CT bone volumes
Assay type: in vivo
Settings: normal ZA-treated mice; 0.25 mg/kg i.p. bi-weekly; vehicle 142±28; p=0.0296
Method: The right hindlimb of each mouse was fixed in 10% Formalin for 48 hours, and then stored in 70% ethanol at 4° C. MicroCT analysis was performed as previously described (2009, Frisch et al., Blood 114:4054-4063).
All ELISAs were performed as indicated by the manufacturer's instructions. CTX measurements were performed using the RatLaps ELISA (AC-06F1, Immunodiagnostic Systems Inc.). TRACP 5b measurement was performed using Mouse TRAP ELISA (SB-TR103, Immunodiagnostic Systems Inc.). Osteocalcin measurement performed using the Mouse Osteocalcin EIA kit (BT-470, Biomedical Technologies). Bovine CTX from bone wafer culture media was measured using the Crosslaps® for Culture ELISA (AC-07F1, Immunodiagnostic Systems Inc.). Murine CCL3 protein measurement was performed using the Mouse CCL3/MIP-1 alpha Quantikine ELISA Kit (MMA00, R&D systems). Human CCL3 protein measurement was performed using the Human CCL3/MIP-1 alpha Quantikine ELISA Kit (DMA00, R&D systems).
Mice were given a 0.25 mg/kg intraperitoneal injection of zoledronic acid (ZA) bi-weekly for 2 weeks prior to induction of disease and throughout the course of the disease.

SMILES: O=P(O)(O)C(O)(Cn1ccnc1)P(=O)(O)O [ZA, Zoledronic acid]
- serum levels of osteocalcin: 49 ± 1 ng/mL
